Experimental data as given in paper PMC6792352, “Limited Chemical Structural Diversity Found to Modulate Thyroid Hormone Receptor in the Tox21 Chemical Library” (Environmental Health Perspectives, 2019).
Counter-ions that a name gives are not always drawn.

Assay: in vitro
Details: rat, gh3-tre-luc cells

Row | SMILES | CC50 at 24 h (AC50 (uM) modified / 1000) | other results
1 | O=S1(=O)OC(c2ccc(O)cc2)(c2ccc(O)cc2)c2ccccc21 [Phenol Red sodium salt] | 46.9 µM | 
2 | NNC(N)=S [Thiosemicarbazide] | > 100 µM | 
3 | COC(=O)c1cncn1C(C)c1ccccc1 (stereo not drawn) [Metomidate hydrochloride] |  | CC50 at 24 h (AC50 (uM) modified / 1000, Tox21_110001=Tox21_110988, viability, 1 nM T3 present, 24 h): > 50 µM
4 | CCCCCCCCCCCCCCCCCC(=O)OCC(O)CO (stereo not drawn) [Glycerol 1-monostearate] | > 50 µM | 
5 | O=C(Nc1cccc([N+](=O)[O-])c1)c1cc2ccccc2cc1O [3-Hydroxy-N-(3-nitrophenyl)naphthalene-2-carboxamide] | 1.77 µM | 
6 | O=C1CN=C(c2ccccc2)c2cc([N+](=O)[O-])ccc2N1 [Nitrazepam] | > 50 µM | 
7 | OCCN(CCO)c1nc(N2CCCCC2)c2nc(N(CCO)CCO)nc(N3CCCCC3)c2n1 [Dipyridamole] | > 50 µM | 
8 | O=C(Nc1ccccc1)N(Cc1ccc(Cl)cc1)C1CCCC1 [Pencycuron] | 54.7 µM | 
9 | O=C(O)c1c(Cl)c(Cl)c(Cl)c(Cl)c1-c1c2cc(I)c(=O)c(I)c-2oc2c(I)c(O)c(I)cc12 [Rose bengal sodium] | 20.9 µM | 
10 | Oc1ccc(C2(c3ccc(O)cc3)CCCCC2)cc1 [Bisphenol Z] | 39.8 µM | 
11 | O=C(O)CC[N+](=O)[O-] [3-Nitropropionic acid] |  | CC50 at 24 h (AC50 (uM) modified / 1000, Tox21_110001=Tox21_202460, viability, 1 nM T3 present, 24 h): > 90 µM
12 | CCCCc1cc2c(=O)c(C(=O)OC)c[nH]c2cc1OCc1ccccc1 [Nequinate] | > 50 µM | 
13 | C=Cc1ccccc1 [Styrene] | > 90 µM | 
14 | FC1(F)C(F)(F)C(F)(F)C2(F)C(F)(F)C(F)(F)C(F)(F)C(F)(F)C2(F)C1(F)F (stereo not drawn) [Perflunafene] | > 50 µM | 
15 | NS(=O)(=O)Cc1noc2ccccc12 [Zonisamide] | > 50 µM | 
16 | NCCCC(=O)O [4-Aminobutanoic acid] | > 50 µM | 
17 | NCCc1cc(O)c(O)cc1O [Oxidopamine hydrochloride] |  | CC50 at 24 h (AC50 (uM) modified / 1000, Tox21_110001=Tox21_111324, viability, 1 nM T3 present, 24 h): 45.2 µM
18 | CC(C)(c1ccccc1)c1ccc(Nc2ccc(C(C)(C)c3ccccc3)cc2)cc1 [4-(2-Phenylpropan-2-yl)-N-[4-(2-phenylpropan-2-yl)phenyl]aniline] | > 90 µM | 
19 | CN1C[C@@H]2c3ccccc3Oc3ccc(Cl)cc3[C@H]2C1 (racemic) [Asenapine] | 33.1 µM | 
20 | N[C@@H](CCC(=O)O)C(=O)O [L-Glutamic acid hydrochloride] | > 90 µM | 
21 | ClC1=C(Cl)[C@]2(Cl)[C@@H]3[C@@H](Cl)[C@H]4O[C@H]4[C@@H]3[C@@]1(Cl)C2(Cl)Cl [Heptachlor epoxide] |  | CC50 at 24 h (AC50 (uM) modified / 1000, Tox21_110001=Tox21_300621, viability, 1 nM T3 present, 24 h): 48.8 µM
22 | C=CCC=CC [1,4-Hexadiene] | > 90 µM | 
23 | OCCOCCOCCO [Triethylene glycol] | > 100 µM | 
24 | COc1ccc(Cl)cc1C(=O)NCCc1ccc(S(=O)(=O)NC(=O)NC2CCCCC2)cc1 [Glybenclamide] | > 90 µM | 

Row | SMILES | CC50 at 24 h (AC50 (uM) modified / 1000) | other results
25 | CCCCCCBr [1-Bromohexane] |  | CC50 at 24 h (AC50 (uM) modified / 1000, Tox21_110001=Tox21_202719, viability, 1 nM T3 present, 24 h): > 100 µM
26 | CC(C)(C)CC(C)(C)c1cc(Cc2cc(C(C)(C)CC(C)(C)C)cc(-n3nc4ccccc4n3)c2O)c(O)c(-n2nc3ccccc3n2)c1 [Bisoctrizole] | > 50 µM | 
27 | O=[N+]([O-])c1ccc2c3c(cccc13)CC2 [5-Nitroacenaphthene] | > 90 µM | 
28 | O=C(CN1CCNCC1)NC1CCCCC1 [Esaprazole] | > 50 µM | 
29 | FC(F)OC(Cl)C(F)(F)F (stereo not drawn) [Isoflurane] | > 90 µM | 
30 | O=c1cc(CO)occ1O [Kojic acid] | > 50 µM | 
31 | CC(CN1c2ccccc2Sc2cccnc21)N(C)C (stereo not drawn) [Isothipendyl hydrochloride] | 28 µM | 
32 | C1CCC2=NCCCN2CC1 [1,8-Diazabicyclo[5.4.0]undec-7-ene] | > 90 µM | 
33 | ClC(Cl)C(Cl)Cl [1,1,2,2-Tetrachloroethane] |  | CC50 at 24 h (AC50 (uM) modified / 1000, Tox21_110001=Tox21_200074, viability, 1 nM T3 present, 24 h): > 90 µM
34 | Clc1ccc2nsnc2c1NC1=NCCN1 [Tizanidine] | > 50 µM | 
35 | O=[N+]([O-])c1cc(C(F)(F)F)c(Cl)c([N+](=O)[O-])c1Cl [2,4-Dichloro-1,3-dinitro-5-(trifluoromethyl)benzene] | 2.31 µM | 
36 | C=C[C@]1(C)C[C@@H](OC(=O)CSCCN(CC)CC)[C@]2(C)[C@H](C)CC[C@]3(CCC(=O)[C@H]32)[C@@H](C)[C@@H]1O [Tiamulin] | 14.1 µM | 
37 | CCOc1ccc(C(=O)OCCN(CC)CC)cc1 [Parethoxycaine] | > 50 µM | 
38 | Cc1ccc(C(=O)Nc2ccc(S(=O)(=O)O)c3cc(S(=O)(=O)O)cc(S(=O)(=O)O)c23)cc1NC(=O)c1cccc(NC(=O)Nc2cccc(C(=O)Nc3cc(C(=O)Nc4ccc(S(=O)(=O)O)c5cc(S(=O)(=O)O)cc(S(=O)(=O)O)c45)ccc3C)c2)c1 [Suramin] | > 50 µM | 
39 | C#C[C@]1(O)CC[C@H]2[C@@H]3CCc4cc(OC5CCCC5)ccc4[C@H]3CC[C@@]21C [Quinestrol] | 16 µM | 
40 | CC(=O)[C@H]1CC[C@H]2[C@@H]3C=CC4=CC(=O)CC[C@@]4(C)[C@@H]3CC[C@]12C [Dydrogesterone] | > 20 µM | 
41 | CCCCCCCCCCC[C@@H](C[C@@H]1OC(=O)[C@H]1CCCCCC)OC(=O)[C@H](CC(C)C)NC=O [Orlistat] | > 50 µM | 
42 | Clc1ccc(COC(Cn2ccnc2)c2ccc(Cl)cc2Cl)c(Cl)c1 (stereo not drawn) [Miconazole] | 15 µM | 
43 | CCc1ccc(O)c(C(C)(C)C)c1 [2-tert-Butyl-4-ethylphenol] | 62.1 µM | 
44 | CCCCCCCCCCCCCCCCCCOCC(COP(=O)([O-])OCC[N+](C)(C)C)OC (stereo not drawn) [Edelfosine] | 43.1 µM | 
45 | CCCBr [1-Bromopropane] |  | CC50 at 24 h (AC50 (uM) modified / 1000, Tox21_110001=Tox21_200619, viability, 1 nM T3 present, 24 h): > 90 µM
46 | Cc1ccccc1O [o-Cresol] |  | CC50 at 24 h (AC50 (uM) modified / 1000, Tox21_110001=Tox21_202305, viability, 1 nM T3 present, 24 h): > 90 µM
47 | CN1C(=O)CC[C@H]1c1cccnc1 [Cotinine] | > 90 µM | 
48 | CCCCCCCCCCCCI [1-Iodododecane] | > 90 µM | 

Row | SMILES | CC50 at 24 h (AC50 (uM) modified / 1000) | other results
49 | CN(C)CCCN1c2ccccc2CCc2ccc(Cl)cc21 [Clomipramine hydrochloride] | 7.67 µM | 
50 | O=S(=O)(O)c1cc(I)c(O)c2ncccc12 [Loretin] | > 50 µM | 
51 | C[C@H](N)C(=O)N[C@@H](C)P(=O)(O)O [Alafosfalin] | > 50 µM | 
52 | NC(=O)c1ccccc1O [Salicylamide] | > 90 µM | 
53 | OC1CCCCC1 [Cyclohexanol] | > 100 µM | 
54 | C[C@@H](C1=C(CCN(C)C)Cc2ccccc21)c1ccccn1 [(S)-(+)-Dimethindene maleate] | 42.1 µM | 
55 | CC1=C(CC=O)C(C)(C)CCC1 [2,6,6-Trimethyl-1-cyclohexene-1-acetaldehyde] | > 90 µM | 
56 | CCCCOCC(C)O (stereo not drawn) [1-Butoxy-2-propanol] | > 90 µM | 
57 | CCCCCCCCCCCCCOS(=O)(=O)O [Sodium tridecyl sulfate] | > 90 µM | 
58 | CCCCCCCCCCCCCCCBr [1-Bromopentadecane] | > 50 µM | 
59 | CCN1/C(=C/C=C/C=C/c2sc3ccccc3[n+]2CC)Sc2ccccc21 [Dithiazanine iodide] | 4.14 µM | 
60 | CCCCCCCCCC(=O)O [Decanoic acid] | > 50 µM | 
61 | CCCCCCCCCCCC[N+](C)(C)C [Dodecyltrimethylammonium chloride] | 15.8 µM | 
62 | O=C1c2ccccc2C(=O)c2cc(S(=O)(=O)O)ccc21 [Sodium 9,10-dioxo-9,10-dihydroanthracene-2-sulfonate] | > 90 µM | 
63 | C=C(C)C(=O)OCCOCC [2-Ethoxyethyl methacrylate] | > 90 µM | 
64 | CCN(CC)CCNC(=O)c1ccc(NS(C)(=O)=O)cc1 [Sematilide monohydrochloride] | > 50 µM | 
65 | O=C1c2cccc3c2[C@H](CCC3)CN1[C@@H]1CN2CCC1CC2 [Palonosetron hydrochloride] | 23.5 µM | 
66 | CC1(C)S[C@@H]2[C@H](N=CN3CCCCCC3)C(=O)N2[C@H]1C(=O)O [Amdinocillin] | > 50 µM | 
67 | C=C[Si](OC(C)=O)(OC(C)=O)OC(C)=O [Ethenylsilanetriyl triacetate] | > 90 µM | 
68 | CCN(CC)c1ccc(C(=C2C=CC(=[N+](CC)CC)C=C2)c2ccccc2)cc1 [Brilliant Green] | 0.384 µM | 
69 | CC(C)N(C)C [Dimethylisopropylamine] | > 90 µM | 
70 | COc1cc(-c2ccc(=O)[nH]n2)ccc1OC(F)F [Zardaverine] | > 50 µM | 
71 | CCN(CC)CCn1c(=O)c(Cc2ccc(OC)cc2)nc2ccccc21 [Caroverine hydrochloride] | 19.1 µM | 
72 | O=C1[C@@H]2[C@H]3CC[C@H](C3)[C@@H]2C(=O)N1CCCCN1CCN(c2ncccn2)CC1 [Tandospirone] | > 50 µM | 
